Test results: US8377974B2 (Millennium Pharmaceuticals, Inc., priority 2004, dated 2013)

molecular target: T1, human plasma protein factor Xa (Homo sapiens, UniProt P00742); experiment: Factor Xa IC50 determination: cleavage of paranitroanilide substrate S-2765 in 96-well plates; assay type: biochemical; conditions: fXa 1 nM, S-2765 100 μM, Tris buffered saline pH 7.4, room temperature
T1 construct: measure proteolytic activity of the enzyme (factor Xa); purchased Haematologic Technologies (Essex Junction, Vt.); host or cells: human plasma
From the text: This example illustrates methods for evaluating the compounds of the invention, along with results obtained for such assays. The in vitro and in vivo Factor Xa isoform activities of the inventive compounds can be determined by various procedures known in the art, such as a test for their ability to inhibit the activity of the Factor Xa isoform. […] The IC50 value is the concentration (in nM) of the compound required to provide 50% inhibition of Factor Xa isoform.
An in vitro assay for detecting and measuring inhibition activity against Factor Xa is as follows:
The substrate S-2765 (Z-D-Arg-Gly-Arg-pNA.HCl) was obtained from Diapharma (West Chester, Ohio).
The human plasma protein factor Xa was purchased from Haematologic Technologies (Essex Junction, Vt.).
All assays, which are performed in 96-well microtiter plates, measure proteolytic activity of the enzyme (factor Xa) by following cleavage of paranitroanilide substrate. The assay buffer used for proteolytic assays was Tris buffered saline (20 mM Tris, 150 mM NaCl, 5 mM CaCl2, 0.1% Bovine serum albumin (BSA), 5% Dimethly Sulfoxide (DMSO) pH 7.4). In a 96-well microtiter plate, inhibitor was serially diluted to give a range of concentrations from 0.01 nM to 10 μM (final). Duplicate sets of wells were assayed and control wells without inhibitor were included. Enzyme was added to each well, (fXa concentration=1 nM), the plate was shaken for 5 seconds and then incubated for 5 minutes at room temperature. S2765 was added (100 μM final) and the plate was shaken for 5 seconds (final liquid volume in each well was 200 μl). The degree of substrate hydrolysis was measured at 405 nm on a Thermomax plate reader (Molecular Devices, Sunnyvale, Calif.) for 2 minutes. The initial velocities (mOD/min), for each range of inhibitor concentrations, were fitted to a four parameter equation using Softmax data analysis software. The parameter C, derived from the resulting curve-fit, corresponded to the concentration for half maximal inhibition (IC50).

T1 sequence (P00742 235-488 limits assumed): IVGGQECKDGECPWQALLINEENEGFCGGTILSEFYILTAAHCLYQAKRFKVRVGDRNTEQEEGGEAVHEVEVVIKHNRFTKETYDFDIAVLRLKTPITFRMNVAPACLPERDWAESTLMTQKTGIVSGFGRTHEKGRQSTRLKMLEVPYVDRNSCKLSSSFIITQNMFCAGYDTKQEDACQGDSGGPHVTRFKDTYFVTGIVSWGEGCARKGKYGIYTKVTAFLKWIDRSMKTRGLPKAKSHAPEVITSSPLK
T1 sequence (P00742 41-179 partner limits assumed): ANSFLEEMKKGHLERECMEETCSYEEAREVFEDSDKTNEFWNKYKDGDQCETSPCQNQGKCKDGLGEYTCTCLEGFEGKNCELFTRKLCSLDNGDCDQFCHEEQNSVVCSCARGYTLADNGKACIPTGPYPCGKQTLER

Question: For `Cc1cccn(-c2ccc(C3=NOC(CNC(=O)c4ccc(Cl)s4)C3)cc2)c1=O` (stereo not drawn) [Example 281, 5-Chloro-N-((3-(4-(3-methyl-2-oxopyridin-1(2H)-yl)phenyl)-4,5-dihydroisoxazol-5-yl)methyl)thiophene-2-carboxamide], which IC50 is on record?
Answer: Its IC50 is no more than 100 nM.

Question: How did the IC50 turn out when `CCOc1cc(C2=NCCN2C)ccc1C1=NOC(CNC(=O)c2ccc(Cl)s2)C1` (stereo not drawn) [Example 107, 5-Chloro-thiophene-2-carboxylic acid {3-[2-ethoxy-4-(1-methyl-4,5-dihydro-1H-imidazol-2-yl)-phenyl]-4,5-dihydro-isoxazol-5-ylmethyl}-amide] was run?
Answer: The IC50 was no more than 100 nM.

Question: Which IC50 does the source give for `N#Cc1ccc(-c2cc(CNC(=O)c3ccc(Cl)s3)on2)cc1` [Example 20, 5-Chloro-thiophene-2-carboxylic acid [3-(4-cyano-phenyl)-isoxazol-5-ylmethyl]-amide] here?
Answer: The IC50 was no more than 100 nM.

Question: How did the IC50 turn out when `CC(=N)N1CCC(C2=NOC(CNC(=O)c3ccc(Cl)s3)C2)CC1` (stereo not drawn) [Example 173, 5-Chloro-thiophene-2-carboxylic acid {3-[1-(1-imino-ethyl)-piperidin-4-yl]-4,5-dihydro-isoxazol-5-ylmethyl}-amide] was run?
Answer: Its IC50 is no less than 500 nM.

Question: Which IC50 does the source give for `CCOC(=O)C1CCN(C(=N)c2ccc(-c3nc(CNC(=O)c4ccc(Cl)s4)co3)cc2)CC1` [Example 342, Ethyl 1-((4-(4-((2-chlorothiophene-5-carboxamido)methyl)oxazol-2-yl)phenyl)(imino)methyl)piperidine-4-carboxylate] here?
Answer: Its IC50 is 100 to 500 nM.

Question: For `O=C(NCC1CC(c2ccc(Nc3ccc4ncccc4c3)cc2)=NO1)c1ccc(Cl)s1` (stereo not drawn) [Example 396, 5-Chloro-N-((3-(4-(quinolin-6-ylamino)phenyl)-4,5-dihydroisoxazol-5-yl)methyl)thiophene-2-carboxamide], which IC50 is on record?
Answer: Its IC50 is no less than 500 nM.

Question: For `O=C(NCc1cc(-c2cccc(-c3cccc(CN4CCCC4)c3)c2)no1)c1ccc(Cl)s1` [Example 271, 5-Chloro-thiophene-2-carboxylic acid [3-(3′-pyrrolidin-1-ylmethyl-biphenyl-3-yl)-isoxazol-5-ylmethyl]-amide], which IC50 is on record?
Answer: Its IC50 is no less than 500 nM.

Question: How did the IC50 turn out when `CCOC(=O)C1CCN(C(=N)c2ccc(C3=NOC(C)(CNC(=O)c4ccc(Cl)s4)C3)cc2)CC1` (stereo not drawn) [Example 61, 1-{[4-(5-{[(5-Chloro-thiophene-2-carbonyl)-amino]-methyl}-5-methyl-4,5-dihydro-isoxazol-3-yl)-phenyl]-imino-methyl}-piperidine-4-carboxylic acid ethyl ester] was run?
Answer: Its IC50 is no more than 100 nM.

Question: Which IC50 does the source give for `CN1CCN=C1c1ccc(-c2nc(CNC(=O)c3ccc(Cl)s3)co2)cc1` [Example 339, 5-Chloro-N-((2-(4-(1-methyl-4,5-dihydro-1H-imidazol-2-yl)phenyl)oxazol-4-yl)methyl)thiophene-2-carboxamide] here?
Answer: Its IC50 is no more than 100 nM.

Question: How did the IC50 turn out when `O=C(NCC1CC(c2ccc(C(=O)N3CC=CC3)cc2)=NO1)c1ccc(Cl)s1` (stereo not drawn) [Example 397, 5-Chloro-N-((3-(4-(2,5-dihydro-1H-pyrrole-1-carbonyl)phenyl)-4,5-dihydroisoxazol-5-yl)methyl)thiophene-2-carboxamide] was run?
Answer: Its IC50 is no more than 100 nM.

Question: `CN(C)C(=N)c1ccc(-c2noc(CNC(=O)c3ccc(Cl)s3)n2)cc1` [Example 334, N-((3-(4-(N,N-Dimethylcarbamimidoyl)phenyl)-1,2,4-oxadiazol-5-yl)methyl)-5-chlorothiophene-2-carboxamide] was tested. Which IC50 did it give?
Answer: The IC50 was no more than 100 nM.

Question: How did the IC50 turn out when `COCCN(C)C(=N)c1ccc(-n2cc(CNC(=O)c3ccc(Cl)s3)nn2)cc1` [Example 316, N-((1-(4-(N-(2-Methoxyethyl)-N-methylcarbamimidoyl)phenyl)-1H-1,2,3-triazol-4-yl)methyl)-5-chlorothiophene-2-carboxamide] was run?
Answer: The IC50 was no more than 100 nM.

Question: For `O=C(NCc1cn(-c2ccc(N3CCOCCC3=O)cc2)nn1)c1ccc(Cl)s1` [Example 303, 5-Chloro-N-((1-(4-(5-oxo-1,4-oxazepan-4-yl)phenyl)-1H-1,2,3-triazol-4-yl)methyl)thiophene-2-carboxamide], which IC50 is on record?
Answer: Its IC50 is no more than 100 nM.

Question: How did the IC50 turn out when `N=C(c1ccc(-n2cc(CNC(=O)c3ccc(Cl)s3)cn2)cc1)N1CCCC1` [Example 328, 5-Chloro-N-((1-(4-(imino(pyrrolidin-1-yl)methyl)phenyl)-1H-pyrazol-4-yl)methyl)thiophene-2-carboxamide] was run?
Answer: Its IC50 is no more than 100 nM.

Question: How did the IC50 turn out when `CN(C)C(=N)c1ccc(-c2cc(CNC(=O)c3ccc(Cl)s3)on2)c(N2CCOCC2)c1` [Example 98, 5-Chloro-thiophene-2-carboxylic acid {3-[4-(N,N-dimethyl-carbamimidoyl)-2-morpholin-4-yl-phenyl]-isoxazol-5-ylmethyl}-amide] was run?
Answer: The IC50 was no more than 100 nM.

Question: `O=C(O)c1ccc(C2=NOC(CNC(=O)c3ccc(Cl)s3)C2)cc1` (stereo not drawn) [Example 158, 4-(5-{[(5-Chloro-thiophene-2-carbonyl)-amino]-methyl}-4,5-dihydro-isoxazol-3-yl)-benzoic acid] was tested. Which IC50 did it give?
Answer: Its IC50 is no less than 500 nM.

Question: With `CCN1CCC(c2cc(CNC(=O)c3ccc(Cl)s3)on2)CC1` [Example 177, 5-Chloro-thiophene-2-carboxylic acid [3-(1-ethyl-piperidin-4-yl)-isoxazol-5-ylmethyl]-amide] as the compound, how does the IC50 read?
Answer: The IC50 was no less than 500 nM.

Question: How did the IC50 turn out when `N=C(c1ccc(-n2cc(CNC(=O)c3ccc(Cl)s3)nn2)cc1)N1CCCC1` [Example 318, 5-Chloro-N-((1-(4-(imino(pyrrolidin-1-yl)methyl)phenyl)-1H-1,2,3-triazol-4-yl)methyl)thiophene-2-carboxamide] was run?
Answer: The IC50 was no more than 100 nM.

Question: How did the IC50 turn out when `COCCN(C)c1cc(C(=N)N(C)C)ccc1C1=NOC(CNC(=O)c2ccc(Cl)s2)C1` (stereo not drawn) [Example 86, 5-Chloro-thiophene-2-carboxylic acid (3-{4-(N,N-dimethyl-carbamimidoyl)-2-[(2-methoxy-ethyl)-methyl-amino]-phenyl}-4,5-dihydro-isoxazol-5-ylmethyl)-amide] was run?
Answer: The IC50 was no more than 100 nM.

Question: How did the IC50 turn out when `Cc1ccc(=O)n(-c2ccc(C3=NOC(CNC(=O)c4ccc(Cl)s4)C3)cc2)c1` (stereo not drawn) [Example 285, 5-Chloro-N-((3-(4-(5-methyl-2-oxopyridin-1(2H)-yl)phenyl)-4,5-dihydroisoxazol-5-yl)methyl)thiophene-2-carboxamide] was run?
Answer: Its IC50 is no more than 100 nM.

Question: `CN(Cc1ccco1)C(=N)c1ccc(-c2nc(CNC(=O)c3ccc(Cl)s3)co2)cc1` [Example 349, N-((2-(4-(N-(Furan-2-ylmethyl)-N-methylcarbamimidoyl)phenyl)oxazol-4-yl)methyl)-5-chlorothiophene-2-carboxamide] was tested. Which IC50 did it give?
Answer: The IC50 was 100 to 500 nM.

Question: How did the IC50 turn out when `COCCN(C)Cc1ccc(Cl)cc1-c1ccc(C2=NOC(CNC(=O)c3ccc(Cl)s3)C2)cc1` (stereo not drawn) [Example 206, 5-Chloro-thiophene-2-carboxylic acid [3-(5′-chloro-2′-{[(2-methoxy-ethyl)-methyl-amino]-methyl}-biphenyl-4-yl)-4,5-dihydro-isoxazol-5-ylmethyl]-amide] was run?
Answer: The IC50 was 100 to 500 nM.

Question: Which IC50 does the source give for `O=C(NCc1cc(-c2cccc(-c3cccnc3)c2)no1)c1ccc(Cl)s1` [Example 276, 5-Chloro-thiophene-2-carboxylic acid [3-(3-pyridin-3-yl-phenyl)-isoxazol-5-ylmethyl]-amide] here?
Answer: Its IC50 is no less than 500 nM.

Question: For `O=C(NCC1CC(c2ccc(Nc3c(Cl)cncc3Cl)cc2)=NO1)c1ccc(Cl)s1` (stereo not drawn) [Example 402, 5-Chloro-N-((3-(4-(3,5-dichloropyridin-4-ylamino)phenyl)-4,5-dihydroisoxazol-5-yl)methyl)thiophene-2-carboxamide], which IC50 is on record?
Answer: Its IC50 is no less than 500 nM.

Question: With `CN(Cc1ccco1)C(=N)c1ccc(-c2cc(CNC(=O)c3ccc(Cl)s3)on2)cc1` [Example 31, 5-Chloro-thiophene-2-carboxylic acid {3-[4-(N-furan-2-ylmethyl-N-methyl-carbamimidoyl)-phenyl]-isoxazol-5-ylmethyl}-amide] as the compound, how does the IC50 read?
Answer: Its IC50 is no more than 100 nM.

Question: `CN(C)C(=N)c1ccc(-c2cc(CNC(=O)c3ccc(Cl)s3)on2)c(Oc2ccccc2)c1` [Example 130, 5-Chloro-thiophene-2-carboxylic acid {3-[4-(N,N-dimethyl-carbamimidoyl)-2-phenoxy-phenyl]-isoxazol-5-ylmethyl}-amide] was tested. Which IC50 did it give?
Answer: The IC50 was no more than 100 nM.

Question: With `CN1CCN=C1c1ccc(-c2cc(CNC(=O)c3ccc(Cl)s3)on2)c(N(C)C)c1` [Example 95, 5-Chloro-thiophene-2-carboxylic acid {3-[2-dimethylamino-4-(1-methyl-4,5-dihydro-1H-imidazol-2-yl)-phenyl]-isoxazol-5-ylmethyl}-amide] as the compound, how does the IC50 read?
Answer: The IC50 was no more than 100 nM.

Question: With `CN(C)C(=N)c1ccc(-n2cc(CNC(=O)c3ccc(Cl)s3)nn2)c(F)c1` [Example 320, N-((1-(4-(N,N-Dimethylcarbamimidoyl)-2-fluorophenyl)-1H-1,2,3-triazol-4-yl)methyl)-5-chlorothiophene-2-carboxamide] as the compound, how does the IC50 read?
Answer: The IC50 was no more than 100 nM.

Question: With `Nc1ccc(-c2cc(CNC(=O)c3ccc(Cl)s3)on2)cc1` [Example 161, 5-Chloro-thiophene-2-carboxylic acid [3-(4-amino-phenyl)-isoxazol-5-ylmethyl]-amide] as the compound, how does the IC50 read?
Answer: Its IC50 is no more than 100 nM.

Question: `CSc1cc(C(=N)N2CCCC2)ccc1-c1cc(CNC(=O)c2ccc(Cl)s2)on1` [Example 142, 5-Chloro-thiophene-2-carboxylic acid {3-[4-(imino-pyrrolidin-1-yl-methyl)-2-methylsulfanyl-phenyl]-isoxazol-5-ylmethyl}-amide] was tested. Which IC50 did it give?
Answer: The IC50 was no more than 100 nM.
